# Measured values published in patent US7541366B2, “Pyrrolo[3,2-c]pyridine derivatives and processes for the preparation thereof” (YUHAN Corporation, priority 2004, dated 2009).
# Counter-ions that a name gives are not always drawn.
# Test system: basal gastric acid secretion
# Assay: Inhibitory effects on basal gastric acid secretion in pylorus-ligated rats (Shay's rat model)
# Type: in vivo, Sprague Dawley (SD) rats
# Conditions: oral, one hour before pylorus ligation, total acid output 5 hours after ligation, male SD rats
# Experimental: Test Example 2. Inhibitory effects on basal gastric acid secretion in pylorus-ligated rats. Inhibitory effects of the compounds of the present invention on basal gastric acid secretion were performed according to Shay's rat model (Shay, H., et al., 1945, gastroenterology, 5, 43-61). Male Sprague Dawley (SD) rats (200±10 g body weight) were divided into 3 groups (n=5) and fasted for 24 hours with free access to water. Control group was orally administered with 0.5% methylcellulose alone and the other groups were orally administered with test compounds suspended in 0.5% methyl-cellulose solution at doses of 1, 3 and 10 mg/kg/5 ml one hour before pylorus ligation. Under ether anesthesia, the abdomens of the rats were incised and then the pylorus was ligated. 5 hours after ligation, the animals were sacrificed, and the gastric contents were collected. The collected contents were centrifuged at 1,000×g for 10 minutes to obtain the gastric juice. Total acid output was measured by 0.01N NaOH volume (ueq/ml) for automatic titration of the gastric juice to pH 7.0 and the ED50s of test compounds were calculated using the Litchfield-Wilcoxon method. % inhibitory activity was calculated from the following equation and the results are shown in Table 2. %inhibitory activity of test compound=(total acid output of control group−total acid output of the group treated with test compounds)/total acid output of control group X 100
row,Compound,ED50
1,"C#CCn1c(C)c(C)c2cncc(OCc3ccc(F)cc3)c21.Cl [Example 2, 7-(4-fluorobenzyloxy)-2,3-dimethyl-1-(prop-2-ynyl)-1H-pyrrolo[3,2-c]pyridine hydrochloride]",1.1 mg/kg

# Target: T1, proton pump (H+/K+-ATPase) (Sus scrofa, UniProt P19156)
# T1 construct: used as an enzyme source of the in vitro enzyme reaction assay of proton pump; from tissue; host or cells: hog gastric fundic mucosa; membrane vesicles, lyophilized
# T1 sequence (P19156 whole entry): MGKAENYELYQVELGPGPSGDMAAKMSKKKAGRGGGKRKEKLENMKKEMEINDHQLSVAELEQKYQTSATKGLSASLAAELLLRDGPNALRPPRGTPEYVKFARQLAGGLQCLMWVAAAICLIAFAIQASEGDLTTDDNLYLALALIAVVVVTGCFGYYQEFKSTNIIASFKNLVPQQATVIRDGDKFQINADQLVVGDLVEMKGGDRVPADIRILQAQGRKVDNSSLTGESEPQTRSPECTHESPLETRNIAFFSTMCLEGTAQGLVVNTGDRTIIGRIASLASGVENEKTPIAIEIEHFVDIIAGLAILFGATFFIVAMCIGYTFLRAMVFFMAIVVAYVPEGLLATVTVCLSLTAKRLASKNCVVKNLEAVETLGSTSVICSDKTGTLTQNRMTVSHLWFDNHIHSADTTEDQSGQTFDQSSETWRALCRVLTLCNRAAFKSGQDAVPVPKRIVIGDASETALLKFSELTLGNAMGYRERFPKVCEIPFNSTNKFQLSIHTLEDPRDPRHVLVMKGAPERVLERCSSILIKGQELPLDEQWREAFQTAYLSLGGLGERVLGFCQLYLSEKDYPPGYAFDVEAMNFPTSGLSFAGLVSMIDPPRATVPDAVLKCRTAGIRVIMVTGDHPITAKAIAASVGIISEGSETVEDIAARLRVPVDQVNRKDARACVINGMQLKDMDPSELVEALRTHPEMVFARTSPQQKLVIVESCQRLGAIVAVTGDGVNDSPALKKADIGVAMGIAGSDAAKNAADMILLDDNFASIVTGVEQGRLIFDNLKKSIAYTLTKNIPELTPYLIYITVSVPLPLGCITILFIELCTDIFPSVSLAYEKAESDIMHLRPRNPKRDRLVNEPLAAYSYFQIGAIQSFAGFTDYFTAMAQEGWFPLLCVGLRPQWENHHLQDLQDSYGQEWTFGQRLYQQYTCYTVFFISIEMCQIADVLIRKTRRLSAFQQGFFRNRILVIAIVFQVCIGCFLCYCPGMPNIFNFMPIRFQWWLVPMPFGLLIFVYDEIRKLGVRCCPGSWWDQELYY
# T1 sequence (P18434 whole entry partner): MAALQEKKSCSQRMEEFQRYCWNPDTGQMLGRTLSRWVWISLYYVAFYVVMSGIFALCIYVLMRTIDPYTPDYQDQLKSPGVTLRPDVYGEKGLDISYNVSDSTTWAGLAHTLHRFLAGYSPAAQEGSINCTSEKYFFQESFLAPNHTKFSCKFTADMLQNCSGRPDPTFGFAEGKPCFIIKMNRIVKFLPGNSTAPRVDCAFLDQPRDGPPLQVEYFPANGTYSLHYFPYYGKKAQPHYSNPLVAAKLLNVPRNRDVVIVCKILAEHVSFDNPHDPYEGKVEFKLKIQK
# Assay: Inhibitory effects on proton pump (H+/K+-ATPase) activity
# Type: biochemical
# Conditions: hog gastric vesicles, K+ stimulated H+/K+-ATPase activity, Pi at 620 nm, 30 minutes at 37° C.
# Experimental: 1-1. Preparation of gastric proton pump vesicles
# The hog fundic regions containing parietal and peptic cells were scraped with slide-glass. The collected cells were suspended in 10 ml of 0.25M sucrose buffer and homogenized using a tight-fitting Teflon-glass homogenizer. The homogenate was centrifuged for 35 min at 8,000 rpm and the pellet was discarded. The supernatant was further centrifuged for 75 min at 25,000 rpm. The resulting pellets were re-suspended in the sucrose buffer (10 ml), and then the suspension was laid onto discontinuous density gradients consisting of 0.25M sucrose buffer and isolation medium containing 9% Ficoll (w/w). After being centrifuged for 3 hours and 15 minutes at 100,000×g, the material at the interface of sucrose buffer and Ficoll solution was collected and then centrifuged for 40 minutes at 100,000×g. The resulting pellets were re-suspended in 1 ml of 5 mM Hepes/Tris buffer (pH 6.1). This material was lyophilized and stored at −70° C. and used as an enzyme source of the in vitro enzyme reaction assay of proton pump.
# 1-2. Measurement of inhibitory effects on proton pump (H^+/K^+-ATPase) activity
# The inhibitory effects of the compounds of the present invention against proton pump activity were evaluated in 96-well plate. In this assay, the K^+specific H^+/K^+-ATPase activity was calculated based on the difference between the activity of H^+/K^30 -ATPase activity with K^30 and without K^30 ion. In 96-well plate, 1% dimethylsulfoxide (DMSO) in buffer was added to negative and positive control groups and the diluted compounds of the present invention in buffer were added to test group. All assays were performed in 100μl reaction volume at room temperature, and the hog gastric vesicle was kept in ice before use. At the beginning of the reaction, 10μl of reaction buffer containing 1% DMSO was added to the negative and positive control groups and to reaction buffer each concentration of compounds in the test group. Then lyophilized vesicle in 5mM Pipes/Tris buffer (pH 6.1) was pre-incubated in the presence of various concentrations of test compounds. After a 5 minute incubation, negative and positive buffers were respectively added to the previous reaction mixture. As the substrate, ATP was added to the reaction buffer, and incubated for 30 minutes at 37° C. Enzymatic activity was stopped by the addition of colorimetric reagent (2X malachite green, 1X ammonium molybdate, X polyvinyl alcohol, 2X H2O) and the amount of mono phosphate (Pi) in the reaction was measured at 620nm using the micro plate reader (Genios Pro, TECAN). The difference between the Pi production with K^+and without K^+is taken as K^+stimulated H^+/K^+-ATPase activity. The IC50s of test compounds were calculated from each % inhibition value of compounds using the method of Litchfield-Wilcoxon (J. Pharmacol. Exp. Ther. (1949) 96, 99).
row,Compound,IC50
1,"C=CCn1c(C)c(C)c2cncc(OCc3ccc(F)cc3)c21 [Example 5, 1-allyl-7-(4-fluorobenzyloxy)-2,3-dimethyl-1H-pyrrolo[3,2-c]pyridine hydrochloride]",0.28 µM
2,"Cc1c(C)n(Cc2ccc(C(F)(F)F)cc2)c2c(OCc3ccc(F)cc3)cncc12 [Example 10, 7-(4-fluorobenzyloxy)-2,3-dimethyl-1-(4-trifluoromethylbenzyl)-1H -pyrrolo[3,2-c]pyridine hydrochloride]",0.34 µM
3,"Cc1c(C)n(CC(C)C)c2c(N3CCc4ccccc4C3)cncc12 [Example 36, 1-isobutyl-7-(1,2,3,4-tetrahydroisoquinolin-2-yl)-2,3-dimethyl-1H -pyrrolo[3,2-c]pyridine hydrochloride]",0.31 µM
4,"Cc1c(C)n(CC2OCCO2)c2c(N3CCc4ccccc4C3)cncc12 [Example 34, 1-(1,3-dioxolan-2-ylmethyl)-7-(1,2,3,4-tetrahydroisoquinolin-2-yl)-2,3-dimethyl-1H -pyrrolo[3,2-c]pyridine hydrochloride]",0.19 µM
5,"COc1cccc(Cn2c(C)c(C)c3cncc(OCc4ccc(F)cc4)c32)c1 [Example 7, 7-(4-fluorobenzyloxy)-1-(3-methoxybenzyl)-2,3-dimethyl-1H -pyrrolo[3,2-c]pyridine hydrochloride]",0.06 µM
6,"Cc1c(C)n(Cc2ccc3c(c2)OCCO3)c2c(N3CCc4ccccc4C3)cncc12 [Example 30, 2-[1-(2,3-dihydrobenzo[1,4]dioxin-6-ylmethyl)-2,3-dimethyl-1H-pyrrolo[3,2-c]pyridin-7-yl]-1,2,3,4-tetrahydroisoquinoline hydrochloride]",0.17 µM
7,"Cc1c(C)n(Cc2ccccc2F)c2c(OCc3ccc(F)cc3)cncc12 [Example 15, 1-(2-fluorobenzyl)-7-(4-fluorobenzyloxy)-2,3-dimethyl-1H -pyrrolo[3,2-c]pyridine hydrochloride]",0.19 µM
8,"Cc1ccc(Cn2c(C)c(C)c3cncc(OCc4ccc(F)cc4)c32)cc1 [Example 8, 7-(4-fluorobenzyloxy)-2,3-dimethyl-1-(4-methylbenzyl)-1H -pyrrolo[3,2-c]pyridine hydrochloride]",0.06 µM
9,"COC(=O)c1ccc(Cn2c(C)c(C)c3cncc(N4CCc5ccccc5C4)c32)cc1 [Example 29, 1-(4-methoxycarbonylbenzyl)-7-(1,2,3,4-tetrahydroisoquinolin-2-yl)-2,3-dimethyl-1H-pyrrolo[3,2-c]pyridine hydrochloride]",0.32 µM
10,"Cc1c(C)n(Cc2ccc(F)cc2)c2c(N3CCc4ccccc4C3)cncc12 [Example 28, 2-[1-(4-fluorobenzyl)-2,3-dimethyl-1H-pyrrolo[3,2-c]pyridin-7-yl]-1,2,3,4-tetrahydroisoquinoline hydrochloride]",0.19 µM
11,"C#CCn1c(C)c(C)c2cncc(OCc3ccc(F)cc3)c21.Cl [Example 2, 7-(4-fluorobenzyloxy)-2,3-dimethyl-1-(prop-2-ynyl)-1H-pyrrolo[3,2-c]pyridine hydrochloride]",0.01 µM
12,"Cc1c(C)n(Cc2cccc(C#N)c2)c2c(N3CCc4ccccc4C3)cncc12 [Example 41, 3-[7-(3,4-dihydro-1H-isoquinolin-2-yl)-2,3-dimethylpyrrolo[3,2-c]pyridin-1-ylmethyl]-benzonitrile hydrochloride]",1.81 µM
13,"Cc1[nH]c2c(OCc3ccc(F)cc3)cncc2c1C [Example 1, 7-(4-fluorobenzyloxy)-2,3-dimethyl-1H-pyrrolo[3,2-c]pyridine hydrochloride]",0.12 µM
14,"CCn1c(C)c(C)c2cncc(N3CCc4ccccc4C3)c21 [Example 40, 2-(1-ethyl-2,3-dimethyl-1H-pyrrolo[3,2-c]pyridin-7-yl)-1,2,3,4-tetrahydroisoquinoline hydrochloride]",0.03 µM
15,"Cc1c(C)n(CC2CC2)c2c(N3CCc4ccccc4C3)cncc12 [Example 39, 2-(1-cyclopropylmethyl-2,3-dimethyl-1H-pyrrolo[3,2-c]pyridin-7-yl)-1,2,3,4-tetrahydroisoquinoline hydrochloride]",0.24 µM
16,"Cc1c(C)n(CC2CC2)c2c(OCc3ccc(F)cc3)cncc12 [Example 4, 1-cyclopropylmethyl-7-(4-fluorobenzyloxy)-2,3-dimethyl-1H -pyrrolo[3,2-c]pyridine hydrochloride]",0.01 µM
17,"Cc1c(C)n(CC2CCC2)c2c(N3CCc4ccccc4C3)cncc12 [Example 37, 1-cyclobutylmethyl-7-(1,2,3,4-tetrahydroisoquinolin-2-yl)-2,3-dimethyl-1H -pyrrolo[3,2-c]pyridine hydrochloride]",0.75 µM
18,"CCn1c(C)c(C)c2cncc(OCc3ccc(F)cc3)c21 [Example 3, 1-ethyl-7-(4-fluorobenzyloxy)-2,3-dimethyl-1H-pyrrolo[3,2-c]pyridine hydrochloride]",0.04 µM
19,"Cc1c(C)n(Cc2cccc(F)c2)c2c(OCc3ccc(F)cc3)cncc12 [Example 6, 1-(3-fluorobenzyl)-7-(4-fluorobenzyloxy)-2,3-dimethyl-1H -pyrrolo[3,2-c]pyridine hydrochloride]",0.03 µM
20,"COCCn1c(C)c(C)c2cncc(N3CCc4ccccc4C3)c21 [Example 31, 1-(2-methoxyethyl)-7-(1,2,3,4-tetrahydroisoquinolin-2-yl)-2,3-dimethyl-1H -pyrrolo[3,2-c]pyridine hydrochloride]",0.17 µM
21,"Cc1c(C)n(Cc2ccc3ccccc3c2)c2c(N3CCc4ccccc4C3)cncc12 [Example 32, 1-(2-naphthylmethyl)-7-(1,2,3,4-tetrahydroisoquinolin-2-yl)-2,3-dimethyl-1H -pyrrolo[3,2-c]pyridine hydrochloride]",0.29 µM
22,"Cc1c(C)n(CC(C)C)c2c(OCc3ccc(F)cc3)cncc12 [Example 11, 7-(4-fluorobenzyloxy)-1-isobutyl-2,3-dimethyl-1H-pyrrolo[3,2-c]pyridine hydrochloride]",0.01 µM
23,"Cc1c(C)n(Cc2ccccc2)c2c(N3CCc4ccccc4C3)cncc12 [Example 35, 1-benzyl-7-(1,2,3,4-tetrahydroisoquinolin-2-yl)-2,3-dimethyl-1H -pyrrolo[3,2-c]pyridine hydrochloride]",0.06 µM
24,"Cc1[nH]c2c(N3CCc4ccccc4C3)cncc2c1C [Example 27, 2-(2,3-dimethyl-1H-pyrrolo[3,2-c]pyridin-7-yl)-1,2,3,4-tetrahydroisoquinoline hydrochloride]",0.46 µM
25,"Cc1c(C)n(Cc2ccccc2Cl)c2c(OCc3ccc(F)cc3)cncc12 [Example 14, 1-(2-chlorobenzyl)-7-(4-fluorobenzyloxy)-2,3-dimethyl-1H -pyrrolo[3,2-c]pyridine hydrochloride]",0.46 µM
26,"Cc1c(C)n(Cc2ccc(F)cc2)c2c(OCc3ccc(F)cc3)cncc12 [Example 9, 1-(4-fluorobenzyl)-7-(4-fluorobenzyloxy)-2,3-dimethyl-1H -pyrrolo[3,2-c]pyridine hydrochloride]",0.05 µM
27,"Cc1ccc(C)c(Cn2c(C)c(C)c3cncc(OCc4ccc(F)cc4)c32)c1 [Example 13, 1-(2,5-dimethylbenzyl)-7-(4-fluorobenzyloxy)-2,3-dimethyl-1H -pyrrolo[3,2-c]pyridine hydrochloride]",1.02 µM
28,"C=COCCn1c(C)c(C)c2cncc(N3CCc4ccccc4C3)c21 [Example 33, 1-(2-vinyloxyethyl)-7-(1,2,3,4-tetrahydroisoquinolin-2-yl)-2,3-dimethyl-1H -pyrrolo[3,2-c]pyridine hydrochloride]",0.41 µM
